Assay results taken from patent publication US9522881B2, “Hydroxyindole carboxylic acid based inhibitors for oncogenic Src homology-2 domain containing protein tyrosine phosphatase-2 (SHP2)” (Indiana University Research and Technology Corporation, priority 2013, dated 2016).

How the values were obtained:
[1] = molecular target: UBLCP1 (Homo sapiens (Human), UniProt Q8WVY7); test: PTP selectivity panel, pNPP; format: biochemical, mammalian; conditions: pNPP at Km
[2] = molecular target: SHP1 (Homo sapiens (Human), UniProt P29350); test: PTP selectivity panel, pNPP; format: biochemical, mammalian
[3] = tested on: Erk1/2 and Akt phosphorylation; test: Erk1/2 and Akt phosphorylation in SKBR3 cells recovered from Matrigel (immunoblot); format: cell-based; conditions: 1 μM to 10 μM, 4 days in Matrigel
Procedure: (§1) Approximately 300,000 SKBR3 cells were seeded into 150 μl of growth factor reduced Matrigel (Corning, Corning, N.Y.) in 35 mm dishes. To 3 dishes for each condition, 2 mL of media containing either 10 μl vehicle (DMSO) or compound 11a-1 at the indicated concentration was then added. Every 24 hours, the cells were imaged with a NIKON SMZ1500 stereomicroscoppe. The cross-sectional area of individual colonies from each image were measured using Adobe Photoshop software. After 4 days, the cells were recovered from the Matrigel and lysed in PLC buffer containing protease inhibitor cocktail (Cat. No. P8340; Sigma-Aldrich, St. Louis, Mo.). Lysates were then resolved by SDS-PAGE and relative levels of the indicated proteins were detected by immunoblot analysis.

[4] = molecular target: PTPσ (Homo sapiens (Human), UniProt Q13332); test: PTP selectivity panel, pNPP; format: biochemical, mammalian; conditions: pNPP at Km
[5] = molecular target: PTPα (Homo sapiens (Human), UniProt P18433); test: PTP selectivity panel, pNPP; format: biochemical, mammalian; conditions: pNPP at Km
[6] = tested on: SKBR3 cells; test: SKBR3 breast cancer cell growth in Matrigel; format: cell-based
Procedure: as §1

[7] = molecular target: PTPε (Homo sapiens (Human), UniProt P23469); test: PTP selectivity panel, pNPP; format: biochemical, mammalian; conditions: pNPP at Km
[8] = molecular target: VHZ (Homo sapiens (Human), UniProt Q9BVJ7); test: PTP selectivity panel, pNPP; format: biochemical, mammalian; conditions: pNPP at Km
[9] = molecular target: mPTPA (Mycobacterium tuberculosis (strain ATCC 25618 / H37Rv), UniProt P9WIA1); test: PTP selectivity panel, pNPP; format: biochemical; conditions: pNPP at Km
[10] = molecular target: PTP1B (Homo sapiens (Human), UniProt P18031); test: PTP selectivity panel, pNPP; format: biochemical, mammalian
[11] = tested on: primary low density bone marrow cells bearing KITD814V; test: Proliferation of primary bone marrow cells bearing KITD814V; format: cell-based, C57BL/6 mice; conditions: 1 μM and 5 μM, compared to II-B08
Procedure: FIG. 8B is a graph depicting WT hematopoietic stem and progenitor cells bearing KITD814V that were starved of serum and growth factors for 6 hours and subjected to proliferation assay in the presence or absence of indicated concentration of II-B08 or 11a-1 as analyzed in Example 6. Bars denote the mean thymidine incorporation (CPM±SD) performed in triplicate from one experiment. *p<0.05.
To further determine the effect of II-B08 and compound 11a-1 on primary bone marrow cells bearing oncogenic KITD814V, primary low density bone marrow cells from C57BL/6 mice were transduced with KITD814V and sorted cells were subjected to a proliferation assay in the presence or absence of the SHP2 inhibitors, II-B08 and compound 11a-1. To express WT KIT and KITD814V receptors in bone marrow cells, low density bone marrow cells were collected from WT mice, and pre-stimulated in IMDM supplemented with 20% FBS, 2% penicillin/streptomycin, and cytokines (100 ng/mL SCF, 100 ng/mL TPO, 50 ng/mL FLT3-L and 4 ng/mL IL-6) for 48 hours prior to retroviral infection on fibronectin fragments (Retronectin) in non-tissues culture plates. On the third day, cells were infected with 2 mL of high-titer retroviral supernatants for WT KIT or KITD814V prepared as described above. A second shot of viral infection was given 24 hours later. […]

[12] = molecular target: PTPγ (Homo sapiens (Human), UniProt P23470); test: PTP selectivity panel, pNPP; format: biochemical, mammalian; conditions: pNPP at Km
[13] = tested on: H1975 cells; test: H1975 cell proliferation (MTT assay); format: cell-based; conditions: Homo sapiens, NCI-H1975, 48 h, treatment for 2 days
Procedure: Particularly, human non-small cell lung carcinoma cell line H1975 was obtained from the American Tissue Culture Collection and cultured at 37° C. and 5% CO2 in RPMI-1640 (Corning, Corning, N.Y.) supplemented with 10% fetal bovine serum. 3×10^3 cells were seeded in each well of 96-well plates. After treatment with compound 11a-1 for 2 days, cells were incubated with 50 μg/ml MTT (3-(4,5-Dimethylthiazol-2-yl)-2,5-diphenyltetrazolium bromide (Sigma, St. Louis, Mo.) for 3-4 hours. Then, the culture medium was removed, DMSO was added to dissolve the formazan crystals. Wells containing only media were used for background correction. The optical density was measured spectrophotometrically at 540 nm.

[14] = molecular target: PTPH1 (Homo sapiens (Human), UniProt P26045); test: PTP selectivity panel, pNPP; format: biochemical, mammalian; conditions: pNPP at Km

Sequence of SHP1 (P29350 whole entry): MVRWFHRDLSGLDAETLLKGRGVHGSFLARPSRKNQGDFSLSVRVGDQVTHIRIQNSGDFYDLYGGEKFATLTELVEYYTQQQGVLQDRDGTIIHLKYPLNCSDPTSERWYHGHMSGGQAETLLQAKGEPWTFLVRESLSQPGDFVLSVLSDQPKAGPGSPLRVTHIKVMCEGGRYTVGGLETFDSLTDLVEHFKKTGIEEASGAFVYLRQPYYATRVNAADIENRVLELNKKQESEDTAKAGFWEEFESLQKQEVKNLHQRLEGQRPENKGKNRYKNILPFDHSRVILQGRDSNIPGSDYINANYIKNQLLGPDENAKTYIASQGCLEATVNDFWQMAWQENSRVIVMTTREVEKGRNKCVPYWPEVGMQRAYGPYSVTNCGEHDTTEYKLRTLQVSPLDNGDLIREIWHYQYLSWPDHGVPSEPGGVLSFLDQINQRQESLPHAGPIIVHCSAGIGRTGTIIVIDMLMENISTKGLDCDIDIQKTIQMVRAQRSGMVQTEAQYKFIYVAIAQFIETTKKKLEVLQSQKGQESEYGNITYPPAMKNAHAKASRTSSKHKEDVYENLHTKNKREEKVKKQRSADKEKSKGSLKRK
Sequence of PTPσ (Q13332 30-1948): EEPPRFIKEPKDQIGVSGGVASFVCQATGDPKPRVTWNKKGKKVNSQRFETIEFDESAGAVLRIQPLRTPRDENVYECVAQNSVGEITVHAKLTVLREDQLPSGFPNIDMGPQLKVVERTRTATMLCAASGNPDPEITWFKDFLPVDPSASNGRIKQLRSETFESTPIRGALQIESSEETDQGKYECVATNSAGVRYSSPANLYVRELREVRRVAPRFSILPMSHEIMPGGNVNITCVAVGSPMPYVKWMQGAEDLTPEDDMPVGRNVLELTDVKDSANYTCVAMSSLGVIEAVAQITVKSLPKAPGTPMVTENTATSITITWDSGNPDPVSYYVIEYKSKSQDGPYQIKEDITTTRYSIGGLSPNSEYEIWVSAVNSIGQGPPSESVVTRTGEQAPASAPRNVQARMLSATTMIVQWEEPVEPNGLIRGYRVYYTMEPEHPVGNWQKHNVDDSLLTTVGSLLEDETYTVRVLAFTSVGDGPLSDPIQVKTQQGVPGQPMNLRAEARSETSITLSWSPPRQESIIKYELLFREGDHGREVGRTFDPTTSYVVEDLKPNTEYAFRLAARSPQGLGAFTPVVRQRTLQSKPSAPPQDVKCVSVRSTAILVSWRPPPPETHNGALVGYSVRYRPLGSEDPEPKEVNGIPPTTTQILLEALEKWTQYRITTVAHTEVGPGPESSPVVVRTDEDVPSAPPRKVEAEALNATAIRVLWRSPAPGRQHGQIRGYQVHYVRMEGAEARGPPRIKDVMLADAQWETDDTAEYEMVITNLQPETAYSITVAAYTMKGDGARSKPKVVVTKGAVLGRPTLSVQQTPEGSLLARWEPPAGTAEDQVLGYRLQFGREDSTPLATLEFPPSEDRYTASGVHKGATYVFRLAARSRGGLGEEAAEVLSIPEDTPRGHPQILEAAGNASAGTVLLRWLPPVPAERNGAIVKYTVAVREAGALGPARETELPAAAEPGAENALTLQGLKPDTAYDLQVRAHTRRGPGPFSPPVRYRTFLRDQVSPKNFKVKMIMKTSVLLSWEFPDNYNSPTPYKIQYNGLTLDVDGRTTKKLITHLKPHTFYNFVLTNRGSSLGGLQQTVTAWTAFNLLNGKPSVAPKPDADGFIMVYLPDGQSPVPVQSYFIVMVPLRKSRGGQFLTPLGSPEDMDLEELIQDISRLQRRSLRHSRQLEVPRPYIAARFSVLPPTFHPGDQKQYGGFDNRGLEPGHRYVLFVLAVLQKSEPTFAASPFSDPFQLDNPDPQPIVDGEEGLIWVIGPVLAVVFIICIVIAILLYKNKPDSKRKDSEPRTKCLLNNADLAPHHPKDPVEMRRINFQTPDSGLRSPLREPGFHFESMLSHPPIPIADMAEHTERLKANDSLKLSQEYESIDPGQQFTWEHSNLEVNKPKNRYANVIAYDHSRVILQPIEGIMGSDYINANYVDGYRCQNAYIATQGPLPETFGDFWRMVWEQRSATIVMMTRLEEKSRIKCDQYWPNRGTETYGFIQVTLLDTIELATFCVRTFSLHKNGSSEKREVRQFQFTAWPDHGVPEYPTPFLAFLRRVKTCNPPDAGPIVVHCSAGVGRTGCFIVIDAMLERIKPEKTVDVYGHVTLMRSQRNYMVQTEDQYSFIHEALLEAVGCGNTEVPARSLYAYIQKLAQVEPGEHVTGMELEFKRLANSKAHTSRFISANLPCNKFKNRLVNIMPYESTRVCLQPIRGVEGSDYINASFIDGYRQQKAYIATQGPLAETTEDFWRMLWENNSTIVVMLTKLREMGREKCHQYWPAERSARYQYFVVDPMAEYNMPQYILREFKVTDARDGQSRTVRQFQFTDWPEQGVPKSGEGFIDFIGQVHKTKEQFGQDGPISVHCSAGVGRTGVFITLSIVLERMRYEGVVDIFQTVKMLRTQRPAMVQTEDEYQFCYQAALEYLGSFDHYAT
Sequence of VHZ (Q9BVJ7 whole entry, species assumed): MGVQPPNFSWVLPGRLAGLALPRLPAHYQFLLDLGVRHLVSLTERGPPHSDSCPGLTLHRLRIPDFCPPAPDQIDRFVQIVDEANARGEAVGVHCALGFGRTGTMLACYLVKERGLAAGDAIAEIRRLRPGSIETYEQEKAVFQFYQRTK
Sequence of PTPα (P18433 whole entry, looked up): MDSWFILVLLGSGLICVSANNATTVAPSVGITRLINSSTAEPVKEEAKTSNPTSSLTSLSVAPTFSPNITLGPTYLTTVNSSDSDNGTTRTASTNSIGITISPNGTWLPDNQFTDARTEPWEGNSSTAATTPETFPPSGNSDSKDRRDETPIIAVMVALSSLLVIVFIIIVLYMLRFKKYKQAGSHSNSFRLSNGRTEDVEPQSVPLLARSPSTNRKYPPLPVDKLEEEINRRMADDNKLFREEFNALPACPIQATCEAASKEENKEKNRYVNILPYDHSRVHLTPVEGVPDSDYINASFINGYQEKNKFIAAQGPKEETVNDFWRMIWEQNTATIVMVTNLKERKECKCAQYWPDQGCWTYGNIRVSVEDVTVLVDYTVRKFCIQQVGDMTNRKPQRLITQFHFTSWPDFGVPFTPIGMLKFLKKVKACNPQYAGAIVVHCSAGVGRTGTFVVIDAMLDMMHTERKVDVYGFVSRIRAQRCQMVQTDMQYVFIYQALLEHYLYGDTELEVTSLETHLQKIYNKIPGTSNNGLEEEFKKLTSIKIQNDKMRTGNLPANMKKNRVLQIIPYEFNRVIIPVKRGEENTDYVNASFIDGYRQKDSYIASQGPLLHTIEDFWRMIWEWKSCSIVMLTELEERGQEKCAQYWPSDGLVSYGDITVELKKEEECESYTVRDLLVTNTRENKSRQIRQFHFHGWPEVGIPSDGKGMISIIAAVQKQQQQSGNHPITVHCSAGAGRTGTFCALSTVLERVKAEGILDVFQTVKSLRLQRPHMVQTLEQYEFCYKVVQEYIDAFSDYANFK
Sequence of PTPγ (P23470 20-1445): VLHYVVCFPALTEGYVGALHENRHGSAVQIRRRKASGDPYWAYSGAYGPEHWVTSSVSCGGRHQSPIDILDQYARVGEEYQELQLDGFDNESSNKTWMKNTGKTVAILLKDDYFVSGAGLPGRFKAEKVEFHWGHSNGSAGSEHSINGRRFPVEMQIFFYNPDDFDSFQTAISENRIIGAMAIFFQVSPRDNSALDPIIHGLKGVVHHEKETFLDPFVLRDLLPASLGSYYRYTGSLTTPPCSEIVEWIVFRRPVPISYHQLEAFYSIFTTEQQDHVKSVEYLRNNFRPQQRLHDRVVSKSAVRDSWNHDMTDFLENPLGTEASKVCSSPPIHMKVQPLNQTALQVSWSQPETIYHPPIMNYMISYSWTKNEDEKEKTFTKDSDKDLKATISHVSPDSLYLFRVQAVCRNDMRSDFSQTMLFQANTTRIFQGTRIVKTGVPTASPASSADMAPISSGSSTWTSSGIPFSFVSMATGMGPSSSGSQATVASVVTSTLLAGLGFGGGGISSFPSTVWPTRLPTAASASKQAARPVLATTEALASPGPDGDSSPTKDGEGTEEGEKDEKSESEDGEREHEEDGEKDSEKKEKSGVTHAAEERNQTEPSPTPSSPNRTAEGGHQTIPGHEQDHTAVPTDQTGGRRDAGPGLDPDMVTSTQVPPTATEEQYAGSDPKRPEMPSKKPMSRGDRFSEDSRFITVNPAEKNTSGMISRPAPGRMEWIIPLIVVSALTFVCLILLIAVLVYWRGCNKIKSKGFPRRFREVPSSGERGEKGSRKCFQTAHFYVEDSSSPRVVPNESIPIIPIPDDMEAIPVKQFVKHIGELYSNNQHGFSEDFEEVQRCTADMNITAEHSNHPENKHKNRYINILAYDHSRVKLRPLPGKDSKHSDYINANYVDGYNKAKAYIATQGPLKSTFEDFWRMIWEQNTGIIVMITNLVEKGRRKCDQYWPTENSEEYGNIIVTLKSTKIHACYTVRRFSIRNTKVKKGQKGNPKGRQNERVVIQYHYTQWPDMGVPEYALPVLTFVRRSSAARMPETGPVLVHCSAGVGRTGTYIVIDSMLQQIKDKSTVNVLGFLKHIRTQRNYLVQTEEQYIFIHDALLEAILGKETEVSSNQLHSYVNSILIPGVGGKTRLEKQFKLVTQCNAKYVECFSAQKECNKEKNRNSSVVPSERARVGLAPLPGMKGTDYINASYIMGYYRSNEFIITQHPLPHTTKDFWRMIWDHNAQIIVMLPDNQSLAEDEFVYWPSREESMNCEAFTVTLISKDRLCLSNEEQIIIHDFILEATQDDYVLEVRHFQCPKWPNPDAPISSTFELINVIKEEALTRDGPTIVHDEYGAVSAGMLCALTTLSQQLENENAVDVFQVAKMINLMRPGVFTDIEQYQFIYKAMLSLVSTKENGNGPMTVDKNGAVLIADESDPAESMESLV

Compound: Cn1c(-c2cccc(NC(=O)C(=O)Nc3ccc(-c4ccsc4)cc3)c2)c(I)c2cc(C(=O)O)c(O)cc21 [11a-1, 6-hydroxy-3-iodo-1-methyl-2-(3-(2-oxo-2-((4-(thiophen-3-yl)phenyl)amino)acetamido)phenyl)-1H-indole-5-carboxylic acid]
- IC50 [1]: 9700 ± 500 nM
- preference for SHP2 over SHP1 [2]: 7 fold
- IC50 ([2]; pNPP at Km): 1440 ± 40 nM
- Erk1/2 and Akt phosphorylation in SKBR3 cells [3]: concordantly inhibited
- IC50 [4]: 8600 ± 400 nM
- IC50 [5]: > 100000 nM
- growth of SKBR3 cells in Matrigel ([6]; 3 μM, within 24 hours): potently inhibited
- ErbB2+ breast cancer cell growth in a 3D Matrigel environment ([6]; SKBR3, over 4 days, indicated concentrations): inhibited
- IC50 [7]: > 20000 nM
- IC50 [8]: 2300 ± 200 nM
- IC50 [9]: 1090 ± 40 nM
- preference for SHP2 over PTP1B [10]: 11 fold
- growth of primary bone marrow cells bearing KITD814V [11]: significant reduced growth
- IC50 [12]: 2400 ± 400 nM
- IC50 [13]: 170 ± 20 nM
- IC50 [14]: 1070 ± 70 nM
